Series [1] has as its system low passage patient-derived melanoma cells bearing MEK and BRAF mutations. The experiment in a line: MTT assay on low passage patient-derived melanoma cell lines with BRAF and MEK1 or MEK2 mutations. As to conditions: BRAF-inhibitor and MEK-inhibitor resistant lines; MTX/TMECG 1 μM/10 μM, PLX-4720 1 μM. The series is classed as cell-based, human. (Tetrazolium assays rely on reduction of a dye to a coloured formazan, in cell work by metabolically active cells.)
Protocol: G, MTT assay indicating effects of MTX/TMECG (1 μM/10 μM) and PLX-4720 (1 μM) treatment on low passage patient-derived melanoma cells bearing indicated MEK and BRAF mutations. Cells were treated with vehicle only (•), PLX-4720 ( ), or with a combination of MTX+TMECG (Δ). Note the number of cells at the start of the experiment was at the limit of detection. […] Error bars show mean±SD.
MTX/TMECG was tested against two low passage melanoma cell lines (fewer than 10 passages) derived from patients with activating BRAF mutations that are resistant to both BRAF-inhibitor and MEK-inhibitor therapy, owing to the presence of activating mutations in MEK1 or MEK2 (Nikolaev et al., 2011). In the MTT assays (FIGS. 2G and 5A) a low starting number of cells (2×10^3) was used, so that any proliferation could be readily visualized.
Cell viability was evaluated using the 3-(4,5-dimethylthiazol-2-yl)-2,5-diphenyltetrazolium bromide (MTT) cell proliferation assay.

The next series relates to SK-MEL-28 melanoma cells. Nature of the series: HPLC/MS analyses of MTX, TMECG-QM and DHF in whole cell extracts. The series is classed as cell-based, human. As to conditions: SK-MEL-28 whole cell extracts, 24 h, MTX 1 μM and/or TMECG 10 μM; control 3.8 ± 1.1. Here is the method:
By way of example, the present inventors have shown that an active agent, such as MTX, may be used to increase TYR expression, thereby increasing the conversion of a catechin to its quinone methide form. The inventors have undertaken HPLC analyses of MTX, TMECG-QM, and DHF in whole cell extracts of SK-MEL-28 melanoma cells that were subjected to MTX (1 μM) and TMECG (10 μM) individual and combined treatments (see Table 1).

Series [2] relates to B16/F10 primary splenic tumors. The experiment in a line: Primary spleen tumors after intrasplenic injection of luciferase-tagged B16/F10 cells. The series is classed as in vivo, mouse.
Protocol: C, Luciferase imaging of control and MTX/TMECG-treated mice 12 days post-tumor cell injection. Beetle luciferin (120 mg/kg of mouse) was injected intraperitoneally. The values (means±s.d.) are representative of three independent experiments. *P=0.007; **P=0.002. […] Xenograft tumors treated with DMSO (vehicle) or MTX/TMECG (1 mg/kg/day and 50 mg/kg/day, respectively) over 14-days. […] Representative images taken from two independent experiments (n=5 for each experiment). Scale bar=200 μm and is applicable to both panels. I, B16/F10 melanoma cells, expressing a luciferase reporter, were injected subcutaneously to mice. Mice were divided in two groups (n=7) and treated with vehicle (DMSO) or MTX/TMECG (1 mg/kg/day and 10 mg/kg/day, respectively) over 21-days. Then, tumors were pooled and dissociated. B16/F10 cells extracted from tumors were examined for their sensitivity to the MTX/TMECG combination (1 μM and 10 μM, respectively) using quantification of the luminescence signal (left panel). […] Scale bar refers to all panels. […] Mice were treated with vehicle, MTX (1 mg/kg/day), and/or TMECG (50 mg/kg/day). […] Scale bar refers to all panels.
A, Luciferase imaging of vehicle (control), MTX, and/or TMECG-treated mice 12 days post-tumor cell injection. Firefly luciferin (120 mg/kg of mouse) was injected intraperitoneally. The values are representative of three independent experiments. […] The number of cells was estimated by extrapolation of the experimental luciferase signal to calibration curves. A straight line with a good linear correlation coefficient (0.998) was obtained by plotting luciferase signal vs number of B16/F10-luc2 cells. Treatment of mice (n=6) started 24 hr after tumor induction (Day 1). For all experiments: *p<0.05 with respect to control mice; #p<0.05 with respect to individual MTX or TMECG treatments.
A short description of series [3]: Pharmacokinetic studies in mice plasma. The series is classed as in vivo. The conditions noted are these: mouse, ip, male C57BL/6 mice, intra-peritoneal TMECG 50 mg/kg alone or with MTX 50 mg/kg. As to the method: Pharmacokinetic studies were performed in male C57BL/6 mice after intra-peritoneal injection of MTX (50 mg/kg) and/or TMECG (50 mg/kg). Animals were anesthetized with CO2, and whole blood samples (˜0.5 mL) were collected via cardiac puncture. Samples for drug quantification were collected from different animals (in triplicate) at 5, 15, and 30 min and at 1, 2, 4, and 6 hr post-dose. Whole blood samples were transferred to lithium heparin blood collection tubes, and then centrifuged at 10,000 rpm for 10 min at 4° C. After plasma deproteinization with 5% trichloroacetic acid (TCA), MTX and TMECG plasma concentrations were calculated by HPLC. Pharmacokinetic parameters were estimated using the WinNonlin software package (WinNonlin Professional version 5.1., Pharsight Corporation, CA). WinNonlin model 200 was used for the non-compartmental analysis of the concentration-time data. The area under the plasma concentration-time curve (AUClast) from time 0 to the last point (tlast) with measurable concentration (Clast) was estimated using a linear trapezoidal approximation (AUClast). The elimination half-life (t1/2) was calculated as ln2/kel, where kel (elimination rate constant) was estimated using least squares regression analysis of the concentration-time data obtained during the terminal log-linear elimination phase. The maximum plasma concentrations (Cmax) were estimated directly from the data, with tmax being defined as the time of the first occurrence of Cmax.

A further series has as its system B16/F10 melanoma cells. Nature of the series: Subcutaneous B16/F10 melanoma model in C57BL/6 mice. The series is classed as in vivo, mouse. As to conditions: compared to untreated mice. Here is the method:
FIGS. 4A-N. MTX and TMECG combination therapy is effective in vivo. A, A375 melanoma cells were included in a human reconstructed skin model and were treated with MTX (1 μM) and/or TMECG (10 μM) for 14 days. B, B16/F10 melanoma cells were injected subcutaneously into C57/B16 mice. Images show tumor size 17 days post-injection in control and treated mice. […] C, Luciferase imaging of control and MTX/TMECG-treated mice 12 days post-tumor cell injection. Beetle luciferin (120 mg/kg of mouse) was injected intraperitoneally. The values (means±s.d.) are representative of three independent experiments. *P=0.007; **P=0.002. […] E, Quantification of macrometastases (0-10, 10-25 or >25) after treatment with vehicle (control), MTX (1 mg/kg/day), and/or TMECG (50 mg/kg/day). […] B16/F10 cells extracted from tumors were examined for their sensitivity to the MTX/TMECG combination (1 μM and 10 μM, respectively) using quantification of the luminescence signal (left panel). […]
Animals were bred and maintained according to the Spanish legislation on the ‘Protection of Animals used for Experimental and other Scientific Purposes’ and in accordance with the directives of the European community. […] Primary spleen tumors and hepatic metastases at 12 and 14 days, respectively, were analyzed using the IVIS Imaging System (Caliper Life Sciences). […]

Series [4] in a line: Toxicology in non-tumor inoculated C57BL/6 mice. The series is classed as in vivo, mouse. As to the method: FIGS. 4A-N. MTX and TMECG combination therapy is effective in vivo. A, A375 melanoma cells were included in a human reconstructed skin model and were treated with MTX (1 μM) and/or TMECG (10 μM) for 14 days. B, B16/F10 melanoma cells were injected subcutaneously into C57/B16 mice. Images show tumor size 17 days post-injection in control and treated mice. […] C, Luciferase imaging of control and MTX/TMECG-treated mice 12 days post-tumor cell injection. Beetle luciferin (120 mg/kg of mouse) was injected intraperitoneally. The values (means±s.d.) are representative of three independent experiments. *P=0.007; **P=0.002. D, Bioluminescent imaging of livers at 14 days post-intrasplenic injection of B16-F10-luc-G5 cells from untreated and MTX/TMECG-treated mice are shown. E, Quantification of macrometastases (0-10, 10-25 or >25) after treatment with vehicle (control), MTX (1 mg/kg/day), and/or TMECG (50 mg/kg/day). F, Photomicrograph of H&E-stained, 4 μm formalin-fixed, paraffin-embedded liver sections from control (DMSO) and MTX/TMECG-treated mice (1 and 50 mg/kg/day, respectively) (5× magnification). G, MTX activation of MITF and tyrosinase activates the melanoma-specific antifolate activity of TMECG, leading to depletion of cellular dTTP and apoptosis. H, Sections stained with hematoxylin and eosin show the effect of MTX/TMECG on B16/F10 primary splenic tumors. Xenograft tumors treated with DMSO (vehicle) or MTX/TMECG (1 mg/kg/day and 50 mg/kg/day, respectively) over 14-days. […] Representative images taken from two independent experiments (n=5 for each experiment). Scale bar=200 μm and is applicable to both panels. I, B16/F10 melanoma cells, expressing a luciferase reporter, were injected subcutaneously to mice. Mice were divided in two groups (n=7) and treated with vehicle (DMSO) or MTX/TMECG (1 mg/kg/day and 10 mg/kg/day, respectively) over 21-days. Then, tumors were pooled and dissociated. B16/F10 cells extracted from tumors were examined for their sensitivity to the MTX/TMECG combination (1 μM and 10 μM, respectively) using quantification of the luminescence signal (left panel). J, The histogram represents the number of B16/F10-luc2 cells remaining after 3 days of MTX/TMECG treatment with respect to vehicle treated controls (100%). […] K, The morphology of tumor dissociated B16/F10-luc2 cells before and after of MTX/TMECG treatment. Scale bar refers to all panels. L, Histograms represent the number of copies of TYR mRNA for every 1×10^3 copies of β-actin±SD of three independent experiments. […]
To explore the toxicity of TMECG and MTX, these agents (at indicated concentrations) were administrated intradermally to the back of non-tumor inoculated female C57BL/6 mice (n=10), and body weight monitored every other day. […]

The target of series [5] is 5-cytosine DNA methyltransferase-1 (Homo sapiens, UniProt P26358). Nature of the series: Inhibition of 5-cytosine DNA methyltransferase-1. The conditions noted are these: data not shown. The series is classed as biochemical.
5-cytosine DNA methyltransferase-1, sequence (P26358 whole entry): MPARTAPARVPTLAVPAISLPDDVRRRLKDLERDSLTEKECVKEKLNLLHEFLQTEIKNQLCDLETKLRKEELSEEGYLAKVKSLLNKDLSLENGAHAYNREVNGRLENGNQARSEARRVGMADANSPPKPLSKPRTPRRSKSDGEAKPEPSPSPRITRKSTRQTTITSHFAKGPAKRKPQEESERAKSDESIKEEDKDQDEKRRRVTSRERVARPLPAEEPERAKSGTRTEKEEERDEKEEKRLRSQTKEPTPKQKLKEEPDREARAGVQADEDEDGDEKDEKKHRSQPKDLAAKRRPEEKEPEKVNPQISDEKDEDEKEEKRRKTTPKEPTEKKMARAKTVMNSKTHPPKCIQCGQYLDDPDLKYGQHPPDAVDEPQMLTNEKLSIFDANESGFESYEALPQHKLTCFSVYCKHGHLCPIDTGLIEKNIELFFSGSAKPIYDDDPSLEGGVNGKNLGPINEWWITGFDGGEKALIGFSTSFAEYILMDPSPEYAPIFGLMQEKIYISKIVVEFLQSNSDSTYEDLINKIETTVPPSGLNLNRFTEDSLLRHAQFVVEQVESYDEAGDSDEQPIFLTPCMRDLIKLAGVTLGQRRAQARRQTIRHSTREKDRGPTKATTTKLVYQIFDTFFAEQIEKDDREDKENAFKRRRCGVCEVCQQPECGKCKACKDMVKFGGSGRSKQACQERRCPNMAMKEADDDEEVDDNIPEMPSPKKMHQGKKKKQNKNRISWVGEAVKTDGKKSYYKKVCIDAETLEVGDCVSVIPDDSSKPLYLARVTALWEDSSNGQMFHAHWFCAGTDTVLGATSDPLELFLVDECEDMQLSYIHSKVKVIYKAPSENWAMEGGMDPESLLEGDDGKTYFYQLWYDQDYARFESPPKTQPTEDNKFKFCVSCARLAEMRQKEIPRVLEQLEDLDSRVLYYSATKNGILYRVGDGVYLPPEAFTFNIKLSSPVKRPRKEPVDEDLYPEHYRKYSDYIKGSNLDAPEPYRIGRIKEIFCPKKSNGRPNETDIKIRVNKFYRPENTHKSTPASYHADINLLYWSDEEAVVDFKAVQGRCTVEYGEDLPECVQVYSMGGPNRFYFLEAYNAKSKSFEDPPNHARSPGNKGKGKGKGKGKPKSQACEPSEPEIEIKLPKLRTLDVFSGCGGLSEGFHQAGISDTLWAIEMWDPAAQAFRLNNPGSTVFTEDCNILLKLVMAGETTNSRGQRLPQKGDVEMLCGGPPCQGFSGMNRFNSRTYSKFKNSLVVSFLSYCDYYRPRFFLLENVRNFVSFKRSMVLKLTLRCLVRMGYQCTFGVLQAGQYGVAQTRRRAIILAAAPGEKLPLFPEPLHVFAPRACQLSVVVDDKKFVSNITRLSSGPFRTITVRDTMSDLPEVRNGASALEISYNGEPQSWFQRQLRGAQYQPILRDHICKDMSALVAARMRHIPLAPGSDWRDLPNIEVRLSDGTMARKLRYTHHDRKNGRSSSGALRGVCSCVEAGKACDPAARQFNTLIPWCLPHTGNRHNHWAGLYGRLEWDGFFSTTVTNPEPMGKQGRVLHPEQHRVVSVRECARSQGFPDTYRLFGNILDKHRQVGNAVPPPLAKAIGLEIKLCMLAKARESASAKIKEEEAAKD
A further series deals with proteasome. The experiment in a line: Inhibition of the proteasome. The series is classed as biochemical. The conditions noted are these: data not shown.
Another series has as its target glutamate dehydrogenase (Homo sapiens, UniProt P00367). The experiment in a line: Inhibition of glutamate dehydrogenase. The series is classed as biochemical. As to conditions: data not shown.
The next series concerns the target T1, DHFR (Homo sapiens, UniProt P00374).
T1 sequence (P00374 1-187): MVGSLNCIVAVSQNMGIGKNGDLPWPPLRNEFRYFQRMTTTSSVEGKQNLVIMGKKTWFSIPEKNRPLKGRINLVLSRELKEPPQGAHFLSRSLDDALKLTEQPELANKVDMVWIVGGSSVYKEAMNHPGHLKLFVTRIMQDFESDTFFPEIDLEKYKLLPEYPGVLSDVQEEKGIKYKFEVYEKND
As to conditions: Sanchez-del-Campo et al., 2009a; cited from earlier work.

Each structure is given as a SMILES string.

The term AUC denotes the area under the concentration-time curve, a measure of exposure. Usually Cmax stands for the maximum level reached in the sampled fluid or tissue. Broadly, the Tmax is the time from dosing to the highest level.

glutamate dehydrogenase, sequence (P00367 54-558): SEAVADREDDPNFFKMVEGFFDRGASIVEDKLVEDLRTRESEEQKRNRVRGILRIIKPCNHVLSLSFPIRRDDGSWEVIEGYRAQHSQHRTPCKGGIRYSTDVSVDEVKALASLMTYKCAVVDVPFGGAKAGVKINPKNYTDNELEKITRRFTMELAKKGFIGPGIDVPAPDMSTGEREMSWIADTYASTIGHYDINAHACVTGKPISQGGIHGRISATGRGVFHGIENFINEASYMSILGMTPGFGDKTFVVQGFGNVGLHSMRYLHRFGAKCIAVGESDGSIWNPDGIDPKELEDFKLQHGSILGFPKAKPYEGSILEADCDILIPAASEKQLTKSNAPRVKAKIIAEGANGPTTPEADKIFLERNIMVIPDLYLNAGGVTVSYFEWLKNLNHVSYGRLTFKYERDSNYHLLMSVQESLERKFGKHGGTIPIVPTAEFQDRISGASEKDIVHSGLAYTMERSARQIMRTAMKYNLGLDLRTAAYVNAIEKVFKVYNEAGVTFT

As for `CCCS(=O)(=O)Nc1ccc(F)c(C(=O)c2c[nH]c3ncc(Cl)cc23)c1F` [PLX-4720], the “proliferation (MTT)” value in series [1] was “failed to impact significantly on proliferation”.

In the case of `COc1cc(C(=O)O[C@@H]2Cc3c(O)cc(O)cc3O[C@@H]2c2ccc(O)c(O)c2)cc(OC)c1OC` [TMECG, 3,4,5-trimethoxy-epicatechin-3-gallate], the DHF intracellular concentration with SK-MEL-28 melanoma cells came to 4.8 ± 0.9 pmol/10^6 cells. Also, the “necrotic areas in splenic tumors” value in series [2] (14 days treatment, MTX 1 mg/kg/day and/or TMECG 50 mg/kg/day) is reported as 11%±3%. Moreover, the “effect on in vivo luciferase signal” value in [2] (MTX or TMECG alone, 12 days post-tumor cell injection) is on record as “around 2 fold”. The AUC in [3] (read-out: TMECG Parameters AUC) was determined as 79100 ng·h/mL. In addition, the Cmax in series [3] (read-out: TMECG Parameters Cmax) was 39300 ng/mL. For the same compound, the Tmax in series [3] (read-out: TMECG Parameters Tmax) turned out to be 5.4 min. Further, the half-life in series [3] (read-out: TMECG Parameters t1/2 (converted)) was 107 min. Further, in the series with B16/F10 melanoma cells, the tumor growth entry is reported as “significantly reduced”. The mouse body weight entry in series [4] (TMECG-treated versus untreated groups) is listed as “not significant”. Besides, the toxicity in vivo result in series [4] (preliminary observations) is “not toxic in vivo”.

For the compound `COc1cc(C(=O)O[C@H](Cc2c(O)cc(O)cc2O)C(=O)c2ccc(O)c(O)c2)cc(OC)c1OC` [TMECG-QM], the “inhibition of 5-cytosine DNA methyltransferase-1” value in series [5] is “does not inhibit”. For the same compound, the “inhibition of the proteasome” value with proteasome is listed as “does not inhibit”. In addition, at glutamate dehydrogenase, the “inhibition of glutamate dehydrogenase” value is given as “does not inhibit”. The “inhibition constant for DHFR” value at DHFR is recorded as “nanomolar order”.

Values taken from US20150231109A1, “COMBINATIONS (CATECHINS AND METHOTREXATE) FOR USE IN THE TREATMENT OF MELANOMAS” (UNIVERSIDAD DE MURCIA, priority 2012, published 2015).
